According to PubChem BioAssay AID652113 (The Scripps Research Institute Molecular Screening Center, 2013):

Tested on: PAMPA artificial membrane permeability, LC-MS, 5 h
Assay: PubChem AID 652113
Conditions: stronger effect = higher value

permeability: 16.5 ×10⁻⁶ cm/s
Compound: COC(=O)c1cc(Br)cnc1N1CCC(NC2CCCCC2)C(O)C1 (stereo unspecified)
